A short description of data set [1]: Toxicity in Zebrafish embryo assessed as reduction in viability at 100 uM measured after 24 hrs by microscope based analysis relative to control. The following applies: read-out: Activity. The arrangement: species or system Danio rerio.
The nature of data set [2]: Toxicity in Zebrafish embryo assessed as reduction in viability at 50 uM measured after 24 hrs by microscope based analysis relative to control. The arrangement: species or system Danio rerio. The following applies: read-out: Activity.
For data set [3], the system named is Caenorhabditis elegans. Nature of the data set: Nematicidal activity against Caenorhabditis elegans assessed as reduction in larval motility. The data set is classed as functional, organism-based.
Data set [4] concerns Caenorhabditis elegans. Nature of the data set: Nematicidal activity against Caenorhabditis elegans assessed as total paralysis at 100 to 200 uM relative to control. As to conditions: dose 100-200 µM. The format is functional.

For `C=CCCCCCCCCC[C@@H](O)[C@H](C)N` [HALAMINOL A], the mortality at 24 h, 100 µM in data set [1] was 66.6%. Further, the mortality at 24 h, 50 µM in data set [2] worked out at 100%.

On to `CC1=CC(=O)C[C@@H]2[C@@](C)(CC/C(C)=C/C[n+]3cn(C)c4ncnc(N)c43)[C@H](C)CC[C@@]12C`, for which the mortality at 24 h, 100 µM in data set [1] was determined as 100%. Moreover, the mortality at 24 h, 50 µM in data set [2] stood at 100%. In data set [3], the half-maximal inhibitory concentration (IC50) stood at 50 µM. Further, the Activity in data set [4] was determined as 100%.

On to `CC1=CCC[C@@H]2[C@@](C)(CC/C(C)=C/Cn3c[n+](C)c4ncnc(N)c43)[C@H](C)CC[C@@]12C`, for which the mortality at 24 h, 100 µM in data set [1] is 100%. Moreover, the mortality at 24 h, 50 µM in data set [2] turned out to be 100%.

(Values after ChEMBL document CHEMBL5532712, “A Screening of 10,240 NatureBank Fractions Identifies Nematicidal Activity in Agelasine-Containing Extracts from Sponges” (J Nat Prod, 2024).)
